Test results: US20220096516A1, “OLIGONUCLEOTIDE MOLECULE AND APPLICATION THEREOF IN TUMOR THERAPY” (Ractigen Therapeutics, priority 2019, published 2022)
d = 2'-deoxy (DNA); r = 2'-OH (RNA)

Test system: LHPP gene
Assay: High-throughput screening of saRNAs targeting LHPP promoter: LHPP mRNA by one-step RT-qPCR in Huh7 cells
Assay type: cell-based, human
Conditions: 10 nM saRNA, 72 hours, relative to control (Mock)
Outline: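 LHPP transcript level relative to mock, normalised to the geometric mean of the HPRT1 and TBP reference genes, measured by one-step RT-qPCR on crude lysates. Huh7 cells had been RNAiMax-transfected with each saRNA at 10 nM for 72 h.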

Substance | Fold of changes in relative LHPP mRNA expression level [fold] | Fold of changes in relative LHPP mRNA expression level (log2)
RAG7-148: saRNA duplex; sense UUUUCUGCUUUUCCUGCUCTT (SEQ ID NO: 67), antisense GAGCAGGAAAAGCAGAAAATT (SEQ ID NO: 231) (sugars from the 5' end r19 d2, backbone not given here) | 1.30 | 0.38
RAG7-149: saRNA duplex; sense GUUUUCUGCUUUUCCUGCUTT (SEQ ID NO: 99), antisense AGCAGGAAAAGCAGAAAACTT (SEQ ID NO: 263) (sugars from the 5' end r19 d2, backbone not given here) | 1.22 | 0.29
RAG7-150: saRNA duplex; sense UGUUUUCUGCUUUUCCUGCTT (SEQ ID NO: 32), antisense GCAGGAAAAGCAGAAAACATT (SEQ ID NO: 196) (sugars from the 5' end r19 d2, backbone not given here) | 1.48 | 0.56
RAG7-151: saRNA duplex; sense UUGUUUUCUGCUUUUCCUGTT (SEQ ID NO: 100), antisense CAGGAAAAGCAGAAAACAATT (SEQ ID NO: 264) (sugars from the 5' end r19 d2, backbone not given here) | 1.22 | 0.28
RAG7-160: saRNA duplex; sense CUUAGGGACUUGUUUUCUGTT (SEQ ID NO: 153), antisense CAGAAAACAAGUCCCUAAGTT (SEQ ID NO: 317) (sugars from the 5' end r19 d2, backbone not given here) | 1.11 | 0.15
RAG7-162: saRNA duplex; sense UUCUUAGGGACUUGUUUUCTT (SEQ ID NO: 19), antisense GAAAACAAGUCCCUAAGAATT (SEQ ID NO: 183) (sugars from the 5' end r19 d2, backbone not given here) | 1.56 | 0.64
RAG7-165: saRNA duplex; sense CCUUUCUUAGGGACUUGUUTT (SEQ ID NO: 152), antisense AACAAGUCCCUAAGAAAGGTT (SEQ ID NO: 316) (sugars from the 5' end r19 d2, backbone not given here) | 1.11 | 0.16
RAG7-168: saRNA duplex; sense UGACCUUUCUUAGGGACUUTT (SEQ ID NO: 91), antisense AAGUCCCUAAGAAAGGUCATT (SEQ ID NO: 255) (sugars from the 5' end r19 d2, backbone not given here) | 1.24 | 0.31
RAG7-169: saRNA duplex; sense UUGACCUUUCUUAGGGACUTT (SEQ ID NO: 61), antisense AGUCCCUAAGAAAGGUCAATT (SEQ ID NO: 225) (sugars from the 5' end r19 d2, backbone not given here) | 1.34 | 0.42
RAG7-170: saRNA duplex; sense UUUGACCUUUCUUAGGGACTT (SEQ ID NO: 132), antisense GUCCCUAAGAAAGGUCAAATT (SEQ ID NO: 296) (sugars from the 5' end r19 d2, backbone not given here) | 1.16 | 0.21
RAG7-171: saRNA duplex; sense CUUUGACCUUUCUUAGGGATT (SEQ ID NO: 80), antisense UCCCUAAGAAAGGUCAAAGTT (SEQ ID NO: 244) (sugars from the 5' end r19 d2, backbone not given here) | 1.27 | 0.34
RAG7-172: saRNA duplex; sense CCUUUGACCUUUCUUAGGGTT (SEQ ID NO: 81), antisense CCCUAAGAAAGGUCAAAGGTT (SEQ ID NO: 245) (sugars from the 5' end r19 d2, backbone not given here) | 1.27 | 0.34
RAG7-174: saRNA duplex; sense UGCCUUUGACCUUUCUUAGTT (SEQ ID NO: 49), antisense CUAAGAAAGGUCAAAGGCATT (SEQ ID NO: 213) (sugars from the 5' end r19 d2, backbone not given here) | 1.38 | 0.47
RAG7-175: saRNA duplex; sense UUGCCUUUGACCUUUCUUATT (SEQ ID NO: 60), antisense UAAGAAAGGUCAAAGGCAATT (SEQ ID NO: 224) (sugars from the 5' end r19 d2, backbone not given here) | 1.34 | 0.42
RAG7-176: saRNA duplex; sense UUUGCCUUUGACCUUUCUUTT (SEQ ID NO: 110), antisense AAGAAAGGUCAAAGGCAAATT (SEQ ID NO: 274) (sugars from the 5' end r19 d2, backbone not given here) | 1.20 | 0.26
RAG7-179: saRNA duplex; sense CAAUUUGCCUUUGACCUUUTT (SEQ ID NO: 39), antisense AAAGGUCAAAGGCAAAUUGTT (SEQ ID NO: 203) (sugars from the 5' end r19 d2, backbone not given here) | 1.45 | 0.53
RAG7-180: saRNA duplex; sense UCAAUUUGCCUUUGACCUUTT (SEQ ID NO: 58), antisense AAGGUCAAAGGCAAAUUGATT (SEQ ID NO: 222) (sugars from the 5' end r19 d2, backbone not given here) | 1.35 | 0.43
RAG7-181: saRNA duplex; sense CUCAAUUUGCCUUUGACCUTT (SEQ ID NO: 97), antisense AGGUCAAAGGCAAAUUGAGTT (SEQ ID NO: 261) (sugars from the 5' end r19 d2, backbone not given here) | 1.22 | 0.29
RAG7-182: saRNA duplex; sense UCUCAAUUUGCCUUUGACCTT (SEQ ID NO: 85), antisense GGUCAAAGGCAAAUUGAGATT (SEQ ID NO: 249) (sugars from the 5' end r19 d2, backbone not given here) | 1.26 | 0.33
RAG7-183: saRNA duplex; sense GUCUCAAUUUGCCUUUGACTT (SEQ ID NO: 27), antisense GUCAAAGGCAAAUUGAGACTT (SEQ ID NO: 191) (sugars from the 5' end r19 d2, backbone not given here) | 1.51 | 0.59
RAG7-184: saRNA duplex; sense UGUCUCAAUUUGCCUUUGATT (SEQ ID NO: 16), antisense UCAAAGGCAAAUUGAGACATT (SEQ ID NO: 180) (sugars from the 5' end r19 d2, backbone not given here) | 1.59 | 0.67
RAG7-185: saRNA duplex; sense UUGUCUCAAUUUGCCUUUGTT (SEQ ID NO: 116), antisense CAAAGGCAAAUUGAGACAATT (SEQ ID NO: 280) (sugars from the 5' end r19 d2, backbone not given here) | 1.19 | 0.25
RAG7-186: saRNA duplex; sense CUUGUCUCAAUUUGCCUUUTT (SEQ ID NO: 78), antisense AAAGGCAAAUUGAGACAAGTT (SEQ ID NO: 242) (sugars from the 5' end r19 d2, backbone not given here) | 1.28 | 0.35
RAG7-187: saRNA duplex; sense UCUUGUCUCAAUUUGCCUUTT (SEQ ID NO: 123), antisense AAGGCAAAUUGAGACAAGATT (SEQ ID NO: 287) (sugars from the 5' end r19 d2, backbone not given here) | 1.17 | 0.22
RAG7-188: saRNA duplex; sense UUCUUGUCUCAAUUUGCCUTT (SEQ ID NO: 21), antisense AGGCAAAUUGAGACAAGAATT (SEQ ID NO: 185) (sugars from the 5' end r19 d2, backbone not given here) | 1.55 | 0.64
